Source: patent publication US8354455B2, “Prodrugs containing novel bio-cleavable linkers” (Piramal Enterprises Limited and Apparao Satyam, priority 2004, dated 2013)
Read-outs that look alike come from different tables or passages of the source. Marks after values point to notes of the source that are not given here.

Key:
[1] = tested on: MES-induced seizures; experiment: Maximal Electroshock Test (MES), Test 1, mice i.p.; assay type: in vivo; conditions: for minimal effective dose: Mus musculus, ip, symbol = dose with activity
[2] = tested on: convulsant metrazol; experiment: Subcutaneous Metrazol Seizure Threshold Test (scMET), Test 1, mice i.p.; assay type: in vivo; conditions: for minimal effective dose: Mus musculus, ip; for ScMET (number of animal protected/number of animal tested): 300 mg/kg (+)
[3] = tested on: mice; conditions: for Rotorod Toxicity 4.0 h / Rotorod Toxicity (number of animals exhibiting toxicity/number of animals tested) / Rotorod Toxicity 0.5 h: mice, i.p.; for Rotorod Toxicity 4.0 h / Rotorod Toxicity 0.5 h: symbol = dose with toxicity; for Rotorod Toxicity (number of animals exhibiting toxicity/number of animals tested) / Rotorod Toxicity 0.5 h: 0.5 h
[4] = tested on: rats; experiment: Neurotoxicity, rats p.o. (Test 2 and Test 3); conditions: Test 2, rats p.o., 30 mg/kg
From the text: Acute Toxicity—Minimal Motor Impairment (MMI): To assess a compound's undesirable side effects (toxicity), animals were monitored for overt signs of impaired neurological or muscular function.
Groups of at least 8 rats received various doses of the candidate compound until at least two points were established between the limits of 100 percent protection or toxicity and zero percent protection or minimal toxicity. The 95 percent confidence limits, slopes of the regression lines and standard errors of the slopes were calculated for each quantitative determination. Rats received test compounds orally.
This secondary evaluation determines the time to peak effect (TPE), neurotoxicity, median effective dose (ED50) and biological response.

[5] = 0.5 h, read-out: MES 0.5 h, mice, i.p., 0.5 h
[6] = 4 h, read-out: MES 4.0 h, mice, i.p., 4.0 h
[7] = 0.5 h, read-out: ScMET 0.5 h, mice, i.p., 0.5 h, symbol = dose with activity
[8] = 4 h, read-out: ScMET 4.0 h, mice, i.p., 4.0 h, symbol = dose with activity
[9] = mice, i.p., 0.5 h, 300 mg/kg (+)
[10] = mice, i.p., 4.0 h, 300 mg/kg (+)

SMILES: CCOC(=O)CC1(CNC(=O)OCCSSCCO[N+](=O)[O-])CCCCC1 [I-A1-NOPD1]
- minimal effective dose [1, 5]: < 300 mg/kg
- minimal effective dose [1, 6]: > 300 mg/kg
- MES, at 0.25 hours after dosing ([1]; mice, i.p., 0.25 h (footnote k; printed in 0.5 h column)): ++ (++ = activity or toxicity at 100 mg/kg)
- minimal effective dose [2, 7]: > 300 mg/kg
- minimal effective dose [2, 8]: > 300 mg/kg
- Rotorod Toxicity 4.0 h [3]: — (— = no activity or no toxicity at 300 mg/kg)

SMILES: CCOC(=O)CC1(CNC(=O)OCCSSCCOC(=O)NC(CO)C(=O)OC)CCCCC1 (stereo not drawn) [I-A1-PD6]
- minimal effective dose [1, 5]: < 300 mg/kg
- minimal effective dose [1, 6]: > 300 mg/kg
- MES (number of animal protected/number of animal tested) [1, 9]: (1/1)
- minimal effective dose [2, 7]: < 300 mg/kg
- minimal effective dose [2, 8]: > 300 mg/kg
- ScMET (number of animal protected/number of animal tested) ([2]; mice, i.p., 0.5 h): (1/1)
- Rotorod Toxicity (number of animals exhibiting toxicity/number of animals tested) ([3]; 300 mg/kg (+)): (4/4)^i
- Rotorod Toxicity 0.5 h [3]: + (+ = activity or toxicity at 300 mg/kg)
- Rotorod Toxicity 4.0 h [3]: — (— = no activity or no toxicity at 300 mg/kg)

SMILES: CCOC(=O)CC1(CNC(=O)OCCSSCCOC(=O)NC(CCC(=O)OC)C(=O)OC)CCCCC1 (stereo not drawn) [I-A1-PD7]
- minimal effective dose [1, 5]: < 300 mg/kg
- minimal effective dose [1, 6]: > 300 mg/kg
- MES (number of animal protected/number of animal tested) [1, 9]: (1/1)
- minimal effective dose [2, 7]: < 300 mg/kg
- minimal effective dose [2, 8]: > 300 mg/kg
- ScMET (number of animal protected/number of animal tested) ([2]; mice, i.p., 0.5 h): (1/1)^e
- Rotorod Toxicity (number of animals exhibiting toxicity/number of animals tested) ([3]; 300 mg/kg (+)): (2/4)^d
- Rotorod Toxicity 0.5 h [3]: + (+ = activity or toxicity at 300 mg/kg)
- Rotorod Toxicity 4.0 h [3]: — (— = no activity or no toxicity at 300 mg/kg)

SMILES: CCOC(=O)CC1(CNC(=O)OCCSSCCO)CCCCC1 [I-A1-PD8]
- minimal effective dose [1, 6]: > 300 mg/kg
- MES (number of animal protected/number of animal tested) ([1]; mice, i.p., 0.5 h, 100 mg/kg (++)): (2/3)
- MES (number of animal protected/number of animal tested) [1, 9]: (1/1)
- MES (number of animal protected/number of animal tested) [1, 10]: (1/1)
- minimal effective dose [2, 7]: > 300 mg/kg
- minimal effective dose [2, 8]: > 300 mg/kg
- ScMET (number of animal protected/number of animal tested) ([2]; mice, i.p., 0.5 h): (1/1)
- Rotorod Toxicity (number of animals exhibiting toxicity/number of animals tested) ([3]; 300 mg/kg (+)): (4/4)^f
- Rotorod Toxicity 4.0 h [3]: — (— = no activity or no toxicity at 300 mg/kg)

SMILES: CCOC(=O)CC1(CNC(=O)OCCSSCCOC(=O)NCCN(C)C)CCCCC1 [I-A1-PD10]
- minimal effective dose [1, 5]: > 300 mg/kg
- minimal effective dose [1, 6]: > 300 mg/kg
- minimal effective dose [2, 7]: > 300 mg/kg
- minimal effective dose [2, 8]: > 300 mg/kg
- Rotorod Toxicity (number of animals exhibiting toxicity/number of animals tested) ([3]; 100 mg/kg (++)): (8/8)^j
- Rotorod Toxicity 0.5 h [3]: ++ (++ = activity or toxicity at 100 mg/kg)

SMILES: CCOC(=O)CC1(CNC(=O)OCCSSCCOC(C)=O)CCCCC1 [I-A1-PD13]
- minimal effective dose [1, 5]: < 300 mg/kg
- minimal effective dose [1, 6]: > 300 mg/kg
- MES (number of animal protected/number of animal tested) [1, 9]: (1/1)
- minimal effective dose [2, 7]: < 300 mg/kg
- minimal effective dose [2, 8]: > 300 mg/kg
- ScMET (number of animal protected/number of animal tested) ([2]; mice, i.p., 0.5 h): (1/1)
- Rotorod Toxicity (number of animals exhibiting toxicity/number of animals tested) ([3]; 300 mg/kg (+)): (1/4)
- Rotorod Toxicity 0.5 h [3]: + (+ = activity or toxicity at 300 mg/kg)
- Rotorod Toxicity 4.0 h [3]: — (— = no activity or no toxicity at 300 mg/kg)

SMILES: CS(=O)(=O)NC(=O)OCCSSCCOC(=O)Nc1nnc(-c2cccc(Cl)c2Cl)c(N)n1 [I-A1-PD15]
- activity in MES model (in words) ([1]; Test 1, mice i.p.): active in MES
- MES (number of animal protected/number of animal tested) [1, 10]: (1/1)
- ScMET 0.5 h ([2]; mice, i.p., 0.5 h, symbol = dose with activity): — (— = no activity or no toxicity at 300 mg/kg)
- ScMET 4.0 h ([2]; mice, i.p., 4.0 h, symbol = dose with activity): — (— = no activity or no toxicity at 300 mg/kg)
- toxicity (in words) ([3]; Test 1, mice i.p.): no or mild toxicity
- Toxicity (number of animals exhibiting toxicity/number of animals tested) ([4]; 0.50 h): 0/4
- Toxicity (number of animals exhibiting toxicity/number of animals tested) ([4]; 1.00 h): 0/4
- Toxicity (number of animals exhibiting toxicity/number of animals tested) ([4]; 2.00 h): 0/4
- Toxicity (number of animals exhibiting toxicity/number of animals tested) ([4]; 4.00 h): 0/4

SMILES: CCOC(=O)CC1(CNC(=O)OCCSSCCOC(=O)NC(=O)[C@H](CC)N2CCCC2=O)CCCCC1 [I-AA-MPD13]
- minimal effective dose [1, 5]: > 300 mg/kg
- minimal effective dose [1, 6]: > 300 mg/kg
- minimal effective dose [2, 7]: < 300 mg/kg
- minimal effective dose [2, 8]: > 300 mg/kg
- Rotorod Toxicity 0.5 h [3]: + (+ = activity or toxicity at 300 mg/kg)
- Rotorod Toxicity 4.0 h [3]: — (— = no activity or no toxicity at 300 mg/kg)
